Reference: the supplement of paper PMC10307832

What was measured:
Assay in all cases: relative viability (nuclei count vs DMSO), 5 days (fraction); higher = more cells survive
[1] = system: 201T
Summary of the method: (§1)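 Values are medians from duplicate plates. Each reflects relative viability, defined as the nuclei count of treated wells over that of vehicle wells. Lung cancer cell lines in 1536-well plates were pin-tool dosed one day after seeding with one drug alone or with a fixed anchor-drug dose plus five library-drug doses (not always all listed) in √10 steps, then fixed, stained and imaged at 4× after 5 days.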

[2] = system: BEN
Summary of the method: as §1

[3] = system: EPLC-272H
Summary of the method: as §1

[4] = system: HCC-15
Summary of the method: as §1

[5] = system: HCC-78
Summary of the method: as §1

[6] = system: LCLC-97TM1
Summary of the method: as §1

[7] = system: LU99A
Summary of the method: as §1

[8] = system: NCI-H1355
Summary of the method: as §1

[9] = system: NCI-H1395
Summary of the method: as §1

[10] = system: NCI-H2009
Summary of the method: as §1

[11] = system: NCI-H2085
Summary of the method: as §1

[12] = system: NCI-H2126
Summary of the method: as §1

[13] = system: NCI-H2228
Summary of the method: as §1

[14] = system: NCI-H23
Summary of the method: as §1

[15] = system: NCI-H2405
Summary of the method: as §1

[16] = system: NCI-H322M
Summary of the method: as §1

[17] = system: NCI-H460
Summary of the method: as §1

[18] = system: NCI-H647
Summary of the method: as §1

[19] = system: NCI-H650
Summary of the method: as §1

[20] = system: NCI-H661
Summary of the method: as §1

[21] = system: NCI-H838
Summary of the method: as §1

[22] = system: PC-14
Summary of the method: as §1

CCNC(=O)c1noc(-c2cc(C(C)C)c(O)cc2O)c1-c1ccc(CN2CCOCC2)cc1 [Luminespib] + CS(=O)(=O)CCNCc1ccc(-c2ccc3ncnc(Nc4ccc(OCc5cccc(F)c5)c(Cl)c4)c3c2)o1 [Lapatinib] (partner 2 µM)
relative viability ([1]; first compound 0.002 µM): 1.03
relative viability ([1]; first compound 0.006325 µM): 0.961
relative viability ([1]; first compound 0.02 µM): 0.878
relative viability ([1]; first compound 0.06325 µM): 1.02
relative viability ([1]; first compound 0.2 µM): 0.986
relative viability ([2]; first compound 0.002 µM): 0.717
relative viability ([2]; first compound 0.006325 µM): 0.536
relative viability ([2]; first compound 0.02 µM): 0.363
relative viability ([2]; first compound 0.06325 µM): 0.211
relative viability ([2]; first compound 0.2 µM): 0.237
relative viability ([3]; first compound 0.006325 µM): 0.861
relative viability ([3]; first compound 0.02 µM): 0.563
relative viability ([3]; first compound 0.06325 µM): 0.725
relative viability ([3]; first compound 0.2 µM): 0.153
relative viability ([4]; first compound 0.002 µM): 0.812
relative viability ([4]; first compound 0.006325 µM): 0.783
relative viability ([4]; first compound 0.02 µM): 0.883
relative viability ([4]; first compound 0.06325 µM): 0.308
relative viability ([4]; first compound 0.2 µM): 0.136
relative viability ([5]; first compound 0.002 µM): 0.572
relative viability ([5]; first compound 0.06325 µM): 1.32
relative viability ([5]; first compound 0.2 µM): 1.27
relative viability ([6]; first compound 0.002 µM): 1.33
relative viability ([6]; first compound 0.006325 µM): 0.759
relative viability ([6]; first compound 0.02 µM): 0.318
relative viability ([6]; first compound 0.06325 µM): 0.197
relative viability ([6]; first compound 0.2 µM): 0.139
relative viability ([7]; first compound 0.002 µM): 1.11
relative viability ([7]; first compound 0.006325 µM): 0.939
relative viability ([7]; first compound 0.02 µM): 0.518
relative viability ([7]; first compound 0.06325 µM): 0.127
relative viability ([7]; first compound 0.2 µM): 0.11
relative viability ([8]; first compound 0.002 µM): 0.891
relative viability ([8]; first compound 0.006325 µM): 1.02
relative viability ([8]; first compound 0.02 µM): 0.461
relative viability ([8]; first compound 0.06325 µM): 0.664
relative viability ([8]; first compound 0.2 µM): 0.153
relative viability ([9]; first compound 0.002 µM): 1.04
relative viability ([9]; first compound 0.006325 µM): 0.996
relative viability ([9]; first compound 0.02 µM): 0.645
relative viability ([9]; first compound 0.06325 µM): 0.336
relative viability ([9]; first compound 0.2 µM): 0.347
relative viability ([10]; first compound 0.002 µM): 1.22
relative viability ([10]; first compound 0.006325 µM): 0.814
relative viability ([10]; first compound 0.02 µM): 0.63
relative viability ([10]; first compound 0.06325 µM): 0.0682
relative viability ([10]; first compound 0.2 µM): 0.0655
relative viability ([11]; first compound 0.002 µM): 0.854
relative viability ([11]; first compound 0.006325 µM): 0.793
relative viability ([11]; first compound 0.02 µM): 0.482
relative viability ([11]; first compound 0.06325 µM): 0.373
relative viability ([11]; first compound 0.2 µM): 0.284
relative viability ([12]; first compound 0.002 µM): 0.798
relative viability ([12]; first compound 0.006325 µM): 0.776
relative viability ([12]; first compound 0.02 µM): 0.582
relative viability ([12]; first compound 0.06325 µM): 0.647
relative viability ([12]; first compound 0.2 µM): 0.526
relative viability ([13]; first compound 0.002 µM): 1.2
relative viability ([13]; first compound 0.006325 µM): 0.808
relative viability ([13]; first compound 0.02 µM): 0.191
relative viability ([13]; first compound 0.06325 µM): 0.126
relative viability ([13]; first compound 0.2 µM): 0.117
relative viability ([14]; first compound 0.002 µM): 1.02
relative viability ([14]; first compound 0.006325 µM): 1.1
relative viability ([14]; first compound 0.02 µM): 0.587
relative viability ([14]; first compound 0.06325 µM): 0.139
relative viability ([14]; first compound 0.2 µM): 0.112
relative viability ([15]; first compound 0.002 µM): 1.17
relative viability ([15]; first compound 0.006325 µM): 0.876
relative viability ([15]; first compound 0.02 µM): 0.869
relative viability ([15]; first compound 0.06325 µM): 0.144
relative viability ([15]; first compound 0.2 µM): 0.125
relative viability ([16]; first compound 0.002 µM): 0.556
relative viability ([16]; first compound 0.006325 µM): 0.573
relative viability ([16]; first compound 0.02 µM): 0.503
relative viability ([16]; first compound 0.06325 µM): 0.708
relative viability ([16]; first compound 0.2 µM): 0.373
relative viability ([17]; first compound 0.002 µM): 1.11
relative viability ([17]; first compound 0.006325 µM): 0.871
relative viability ([17]; first compound 0.02 µM): 0.0465
relative viability ([17]; first compound 0.06325 µM): 0.0095
relative viability ([17]; first compound 0.2 µM): 0.0127
relative viability ([18]; first compound 0.002 µM): 1.2
relative viability ([18]; first compound 0.006325 µM): 1.16
relative viability ([18]; first compound 0.02 µM): 0.359
relative viability ([18]; first compound 0.06325 µM): 0.0578
relative viability ([18]; first compound 0.2 µM): 0.0724
relative viability ([19]; first compound 0.002 µM): 0.888
relative viability ([19]; first compound 0.006325 µM): 0.838
relative viability ([19]; first compound 0.02 µM): 0.507
relative viability ([19]; first compound 0.06325 µM): 0.0944
relative viability ([19]; first compound 0.2 µM): 0.149
relative viability ([20]; first compound 0.002 µM): 0.469
relative viability ([20]; first compound 0.006325 µM): 0.464
relative viability ([20]; first compound 0.02 µM): 0.35
relative viability ([20]; first compound 0.06325 µM): 0.324
relative viability ([20]; first compound 0.2 µM): 0.208
relative viability ([21]; first compound 0.002 µM): 1.05
relative viability ([21]; first compound 0.006325 µM): 0.911
relative viability ([21]; first compound 0.02 µM): 0.328
relative viability ([21]; first compound 0.06325 µM): 0.103
relative viability ([21]; first compound 0.2 µM): 0.0976
relative viability ([22]; first compound 0.002 µM): 0.383
relative viability ([22]; first compound 0.006325 µM): 0.267
relative viability ([22]; first compound 0.02 µM): 0.247
relative viability ([22]; first compound 0.06325 µM): 0.138
relative viability ([22]; first compound 0.2 µM): 0.116
